This is an account of results in patent US20200068887A1, “TREATMENT FOR REMOVING ECTOPARASITES FROM FISH” (priority 2016, published 2020).

The subject of test [1] is salmon louse. The test is described as follows: Bath treatment of lice-infected Atlantic salmon, percent lice removed. It is filed as in vivo. As to conditions: duplicate. How it is done: To determine the concentration- and time-dependence of imidacloprid treatment in vivo, Atlantic salmon (average of 320.9 g) were challenged with imidacloprid in seawater (32.5%0 salinity) at 12° C. The water level in the tank was lowered and aeration was employed during administration of the active. The salmon louse copepodid culture was counted and adjusted to obtain a target level of around 40 copepodids per fish in the challenge tank at each challenge time point.
Salmon lice on the fish were counted using standard methods. Only lice on the fish's outer surface, not including gills and oral/buccal cavities, were investigated.
Numbers of dissociated lice in tank water or attached to the tank walls were recorded. Lice in the tank water were collected and assessed for ability to attach by suction to a smooth plastic surface immediately after treatment and again after 30-60 minutes (to assess possible revival). Live and viable lice were also collected from the mock-treated control groups for reference and held in revival chambers for the same period of time to assess the system.
The test solutions of the active were prepared (added and homogenised with seawater) and administered to a treatment volume of 40 litres.
Three sea lice-infected fish from the holding tank were randomly gathered and carefully steered into a barrel forming an inner compartment (diameter=34.5-40 cm; height=54 cm) that was submerged in the tank and in which the base has been replaced with a plastic mesh screen with 9 mm^2 square holes.
The fish were transferred to the inner compartment within 3 minutes of each test start. The inner compartment was suspended/submerged in the holding tank pending treatment. Treatments and mock treatments were implemented by draining the inner compartment with fish and transferring it to a barrel containing the test solution. Treatments/mock treatments were performed in static water with aeration/oxygenation. Aeration was adjusted to set the oxygen saturation to 70-100%.
To terminate the treatment, the inner compartment with treated fish was lifted to the surface and drained, then fish were transferred directly and without water to a second basin with a lethal overdose of anaesthetic and left until dead. All lice remaining on these fish and lice that fell off in the anaesthetic bath were recorded.
Exposure times with imidacloprid ranged from 3 to 60 minutes, and doses ranged from 20 ppm to 200 ppm.
Negative control groups at 3- and 60 minutes were duplicated. Superscript numbers denote the total number of lice on the 3 fish in each test.
By way of comparison, fish infected with sea lice from the same sources were treated with azamethiphos at 0.1 mg/l and deltamethrin at 0.2 μ/l for 30 minutes, per the recommended dosage regimes. Treatments were carried out under similar conditions as those treated with imidacloprid. A mock-treatment control was also administered. Each treatment condition was administered in duplicate.
Superscript numbers denote the total number of lice on the 3 fish in each test.

The test system of test [2] is sea lice. Description: Comparison on isolated sea lice (in vitro bath exposure). The conditions noted are these: registered approx. 20 h after end of exposure. How it is done:
Both pre-adult and adult stages (mobile stages) of both sexes were used, and they were equally distributed among groups. The sea lice were exposed to imidacloprid for 60 minutes, azamethiphos for 60 minutes and deltamethrin for 30 minutes in one litre baths at a range of concentrations (Tables 6, 7 and 8). The sea lice were transferred to clean aerated seawater after treatment. The temperature of the seawater during the experiment was 12° C., but during exposure the temperature raised to approx. 14° C. in regimes exposed for 60 min. (imidacloprid and azamethiphos) and to 13° C. for the regime exposed in 30 minutes (deltamethrin).
The numbers of live and immobilised (including killed) lice in each regime were registered approximately 20 h after end of exposure. Each louse was individually investigated.

Where [3] appears, read: azamethiphos 5 ppm, 60 min exposure.
Setting [4] is: azamethiphos 10 ppm, 60 min exposure.
[5] abbreviates: azamethiphos 15 ppm, 60 min exposure.
Setting [6] is: azamethiphos 20 ppm, 60 min exposure.
[7] abbreviates: deltamethrin 5 ppm, 30 min exposure.
[8] abbreviates: deltamethrin 15 ppm, 30 min exposure.
[9] abbreviates: deltamethrin 20 ppm, 30 min exposure.
The mark [10] stands for this setting: deltamethrin 30 ppm, 30 min exposure.

Where “and” joins values, the source holds several entries; their conditions need not be identical. Equal entries are not always repeated.

`COP(=O)(OC)SCn1c(=O)oc2cc(Cl)cnc21` [azamethiphos]: in test [1] (azamethiphos at 0.1 mg/l for 30 minutes, 52 and 33 lice on 3 fish), the “% Removal” value is 3.0^33% and 3.8^52%. Further, the “% effect” value is 0% in test [2] (setting [3]); 10% in test [2] (setting [4]); 0% in test [2] (setting [5]); 10% and 20% in test [2] (setting [6]). In addition, the Immobilised in test [2] (setting [3]) is 0; in test [2] (setting [4]) it was 1; in test [2] (setting [5]) it was 0; in test [2] (setting [6]) it was 1 and 2. Moreover, the Live in test [2] (setting [3]) was 10; in test [2] (setting [4]), 9; in test [2] (setting [5]), 10; in test [2] (setting [6]), 9 and 8; in test [2] (azamethiphos 30 ppm, 60 min exposure) it was 9 and 6.
With `CC1(C)[C@H](C(=O)O[C@H](C#N)c2cccc(Oc3ccccc3)c2)[C@@H]1C=C(Br)Br` [deltamethrin], the “% Removal” value in test [1] (deltamethrin at 0.2 μ/l for 30 minutes, 37 lice on 3 fish each) is recorded as 0^37%. For the same compound, the “% effect” value in test [2] (setting [7]) was 0%; in test [2] (setting [8]), 20% and 10%; in test [2] (setting [9]) it was 20% and 10%. Further, the Immobilised is 0 in test [2] (setting [7]); 2 and 1 in test [2] (setting [8]); 2 and 1 in test [2] (setting [9]); 1 and 2 in test [2] (setting [10]). The Live in test [2] (setting [7]) is 10; in test [2] (deltamethrin 10 ppm, 30 min exposure) it was 9 and 10; in test [2] (setting [8]), 8 and 9; in test [2] (setting [9]), 8 and 9; in test [2] (setting [10]) it was 10 and 8.
